Reference: the supplement of paper PMC10331698
± gives the standard deviation of the averaged measurements.

Tests used:
Test in all cases: level (log10 ratio to DMSO vehicle control); higher = higher biomarker level / cell amount than vehicle control
Methotrexate = compound: CN(Cc1cnc2nc(N)nc(N)c2n1)c1ccc(C(=O)N[C@@H](CCC(=O)O)C(=O)O)cc1 [Methotrexate]; conditions: in DMSO
Method: (§1)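 BioMAP Diversity Plus panel of 12 human primary cell co-culture systems (3C, 4H, LPS, SAg, BT, BF4T, BE3C, CASM3C, HDF3CGF, KF3CT, MyoF, Mphg). Compounds were added 1 h before stimulation and left for 24 h (MyoF 48 h; BT 72 h for soluble read-outs or 6 d for IgG). Biomarkers were read by ELISA, cytotoxicity by SRB, PBMC viability and proliferation by Alamar Blue. Each well value was divided by the mean of 8 DMSO control wells on the same plate and log10 transformed; duplicate blinded samples were tested at 4 concentrations.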

[1] = compound: O=P(O)(O)CCC(F)(F)C(F)(F)C(F)(F)C(F)(F)C(F)(F)C(F)(F)F [2-(Perfluorohexyl)ethylphosphonic acid]; conditions: in DMSO
Method: as §1

[2] = compound: OCC(F)(F)C(F)(F)C(F)(F)C(F)(F)C(F)(F)C(F)(F)C(F)(F)C(F)(F)CO [1H,1H,10H,10H-Perfluorodecane-1,10-diol]; conditions: in DMSO
Method: as §1

[3] = compound: Cc1ccc(S(=O)(=O)OCC(F)(F)C(F)(F)C(F)(F)C(F)(F)C(F)(F)C(F)F)cc1 [1H,1H,7H-Perfluoroheptyl 4-methylbenzenesulfonate]; conditions: in DMSO
Method: as §1

[4] = compound: FC(F)(F)C(F)(F)C(F)(F)C(F)(F)CCI [1H,1H,2H,2H-Perfluorohexyl iodide]; conditions: in DMSO
Method: as §1

[5] = compound: C=CC(=O)OCC(F)(F)C(F)(F)C(F)(F)C(F)(F)COC(=O)C=C [1H,1H,6H,6H-Perfluorohexane-1,6-diol diacrylate]; conditions: 6700 nM; in DMSO
Method: as §1

[6] = compound: O=C(O)C(F)(F)C(F)(F)C(F)(F)C(F)(F)C(F)(F)C(F)(F)C(F)(F)F [Ammonium perfluorooctanoate]; conditions: in DMSO
Method: as §1

| Test System | level (log10) (Methotrexate; 1500 nM) | level (log10) (Methotrexate; 4400 nM) | level (log10) (Methotrexate; 13000 nM) | level (log10) (Methotrexate; 40000 nM) | level (log10) ([1]; 6700 nM) | level (log10) ([1]; 20000 nM) | level (log10) ([1]; 60000 nM) | level (log10) ([2]; 6700 nM) | level (log10) ([2]; 20000 nM) | level (log10) ([2]; 60000 nM) | level (log10) ([3]; 6700 nM) | level (log10) ([3]; 20000 nM) | level (log10) ([3]; 60000 nM) | level (log10) ([4]; 6700 nM) | level (log10) ([4]; 20000 nM) | level (log10) ([4]; 60000 nM) | level (log10) [5] | level (log10) ([6]; 6700 nM) | level (log10) ([6]; 20000 nM) | level (log10) ([6]; 60000 nM) |
| --- | --- | --- | --- | --- | --- | --- | --- | --- | --- | --- | --- | --- | --- | --- | --- | --- | --- | --- | --- | --- |
| LPS:CD106/VCAM-1 | 0.0075 ± 0.03 | -0.0065 ± 0.011 | 0.0085 ± 0.00071 | -0.0145 ± 0.005 | -0.021 ± 0.021 | -0.0185 ± 0.0021 | -0.011 ± 0.023 | -0.034 ± 0.028 | -0.0485 ± 0.012 | -0.052 | 0.01 ± 0.0071 | 0.006 ± 0.0014 | 0.025 ± 0.011 | 0.01 | -0.0195 ± 0.005 | -0.026 ± 0.016 | -0.048 ± 0.0099 | 0.001 ± 0.0042 | 0.0035 ± 0.015 | -0.013 ± 0.0028 |
| LPS:CD141/Thrombomodulin | 0.016 ± 0.03 | -0.0155 ± 0.036 | 0.0085 ± 0.015 | -0.0025 ± 0.023 | -0.004 ± 0.11 | -0.0055 ± 0.11 | 0.0315 ± 0.032 | -0.02 ± 0.03 | 0.007 ± 0.044 | -0.047 | -0.0115 ± 0.016 | -0.011 ± 0.0085 | -0.007 ± 0.023 | 0.0185 ± 0.023 | 0.011 ± 0.038 | -0.005 ± 0.027 | -0.0375 ± 0.013 | 0.0135 ± 0.025 | 0.0105 ± 0.013 | -0.004 ± 0.016 |
| LPS:CD142/Tissue Factor | -0.0105 ± 0.018 | -0.0155 ± 0.039 | 0.022 ± 0.076 | -0.0035 ± 0.0021 | 0.0045 ± 0.1 | 0.054 ± 0.047 | 0.119 ± 0.052 | 0 ± 0.038 | 0.0125 ± 0.069 | -0.035 | -0.0355 ± 0.11 | -0.022 ± 0.065 | 0.161 ± 0.039 | 0.0165 ± 0.0035 | 0.0275 ± 0.018 | 0.055 ± 0.051 | -0.0415 ± 0.00071 | 0.016 ± 0.03 | 0.0045 ± 0.016 | 0.0105 ± 0.015 |
